Conditions: Liquid; for mass density: 101.33 kPa; for vapor or sublimation pressure: Closed cell (Static) method

C1CCC2OC2C1 (stereo unspecified) [7-oxabicyclo[4.1.0]heptane]
Conditions	mass density [kg/m3]	vapor or sublimation pressure [kPa]
277.7 K	988.4	–
289 K	978	–
293.2 K	972.2	–
303.2 K	963.8	–
313.2 K	955	–
323.2 K	944.8	–
333.2 K	935.4	–
343.2 K	925.5	–
353.2 K	915.7	–
360.91 K	–	25.5
361.13 K	–	25.8
363.2 K	903.9	–
382.47 K	–	52.4
383.09 K	–	53.6
404.87 K	–	101.3
405.48 K	–	103.8
423.87 K	–	167
443.95 K	–	268
453.99 K	–	333
463.99 K	–	409
474.03 K	–	497

Reference: the NIST ThermoML archive (doi:10.1021/je050156k)
